Test results from patent US12570657B2, “Mesylate salts of heterocyclic cytokinins, compositions containing these derivatives and use thereof” (UNIVERZITA PALACKEHO V OLOMOUCI, priority 2020, dated 2026).
Where a name gives a salt, the structure may show the parent alone.

Tests used:
[1] = test system: MCF-7 (breast adenocarcinoma); experiment: In vitro cytotoxicity, Calcein AM assay, MCF7; type: cell-based; settings: 3-day Calcein-AM assay
Source text: (§1) Because toxic compounds adversely affect cell metabolic processes, many standard cytotoxicity assays are based on measuring the rate of metabolism of various artificial substrates. The resulting product is then quantified, for example, by spectrometry. Assays can be easily modified for use in 96-well plates, A microtiter assay based on the quantification of Calcein AM metabolism was used to evaluate the cytotoxicity of cytokinins, for example meta-topolin, ortho-topolin, kinetin, BAP or its mesylate salts, but also a number of other cytokinin mesylate derivatives according to the invention. The test is widely used in drug screening programs and in chemosensitivity testing. In living cells, Calcein AM is enzymatically hydrolyzed and the accumulation of the resulting calcein is manifested by green fluorescence. […] These cells were maintained in standard DMEM or RPMI medium (Sigma, MO, USA) supplemented with heat-inactivated fetal bovine serum (10%) with 2 mM L-glutamine and penicillin-streptomycin (1%) under standard cell culture conditions (37° C., 5% CO2 in a humid environment) and subcultured two or three times a week using a standard trypsinization procedure. Approximately 10,000 cells in 80 μl of medium were seeded in a 96-well microtiter plate. After 12 hours of incubation, the compounds to be tested were added in 20 μl aliquots. Control cultures were treated with DMSO alone. […] After 72 hours of incubation, Calcein AM solution (Molecular Probes) was added to a final concentration of 1 μg/ml and the cells were incubated for another hour.
(§2) Cytoxicity of compounds was tested on panel of cell lines of different histogenetic and species origin.

[2] = test system: CEM (T-lymphoblastic leukemia); experiment: In vitro cytotoxicity, Calcein AM assay, CEM; type: cell-based; settings: 3-day Calcein-AM assay
Source text: as §1, §2

[3] = test system: cytokinin-dependent tobacco callus; experiment: Tobacco callus biotest (stimulation of plant cell division); type: cell-based, Nicotiana tabacum L. cv. Wisconsin 38; settings: for activity (%) [10^−5 mol · l^−1 BAP = 100%]: callus growth at concentration with highest activity, 10^−5 M BAP = 100%; for concentration with highest activity: tobacco callus fresh weight increase, four weeks
Method: Stimulation effect of the cytokinin mesylates was tested in tobacco callus biotest using cytokinin dependent tobacco callus. Cytokinin-dependent tobacco callus Nicotiana tabacum L. cv. […] Subcultivation was carried out every three weeks. Fourteen days before the bioassay, the callus tissue was transferred to the media without BAP. Biological activity was determined from the increase in fresh callus weight after four weeks of cultivation. Five replicates were prepared for each cytokinin concentration and the entire test was repeated twice. […] Relative activity of the compound at this concentration was calculated (Tab. 15). The activity obtained for 10^−5 M 6-benzylaminopurine (BAP) was postulated as 100%. The cytokinin bases to be tested were dissolved in dimethylsulfoxide (DMSO) and the solution brought up to 10^−3 M with distilled water. The mesylate salts were dissolved directly in distilled water.

[4] = test system: winter wheat leaf segments; experiment: Senescence bioassay: retention of chlorophyll in excised winter wheat leaf tips; type: in vivo, Triticum aestivum cv. Hereward; settings: for activity (%) [10^−4 mol · l^−1 BAP = 100%]: chlorophyll retention at concentration with highest activity, 10^−4 M BAP = 100%; for concentration with highest activity: chlorophyll retention, excised wheat leaf tips, 96 h dark
Method: Seeds of winter wheat, Triticum aestivum cv. Hereward, were washed under running water for 24 hours and then sown on vermiculite soaked with Knop's solution. They were placed in a growth chamber at 25° C. with a 16/8 h light/dark period at 50 μmol·m^−2·s^−1. After 7 days, the first leaf was fully developed and the second leaf had started to grow. A tip section of the first leaf, approximately 35 mm long, was removed from 5 seedlings and trimmed slightly to a combined weight of 100 mg. The basal ends of the five leaf tips were placed in the wells of a microtiter polystyrene plate containing 150 μl of each tested compound solution. The entire plate was inserted into a plastic box lined with paper tissues soaked in distilled water to prevent leaf sections from drying out. After 96 h incubation in the dark at 25° C., the leaves were removed and chlorophyll extracted by heating at 80° C. for 10 min in 5 ml of 80% ethanol (v/v). The sample volume was then restored to 5 ml by the addition of 80% ethanol (v/v). The absorbance of the extract was recorded at 665 nm. In addition, chlorophyll extracts from fresh leaves and leaf tips incubated in deionised water were measured. […] Relative activity of the compound at this concentration was calculated (Tab. 3). The activity obtained for 10^−4 M 6-benzylaminopurine (BAP) was postulated as 100%. The values shown are means of five replicates and the whole experiment was repeated twice. The tested cytokinin bases were dissolved in dimethylsulfoxide (DMSO) and the solution brought up to 10^−3 M with distilled water. Cytokinin mesylate salts which are more water-soluble (BAP mesylate, meta-topolin mesylate and kinetin mesylate) could be directly dissolved to form a 10^−3 M solution in distilled water.

[5] = test system: K562 (chronic myeloid leukemia); experiment: In vitro cytotoxicity, Calcein AM assay, K-562; type: cell-based; settings: 3-day Calcein-AM assay
Source text: as §1, §2

[6] = test system: HL-60 (promyelocytic, leukemia); experiment: In vitro cytotoxicity, Calcein AM assay, HL60; type: cell-based; settings: 3-day Calcein-AM assay
Source text: as §1, §2

HOS (human osteosarcoma) = experiment: In vitro cytotoxicity, Calcein AM assay, HOS; type: cell-based; settings: 3-day Calcein-AM assay
Source text: as §1, §2

[7] = test system: Spring barley (variety Francin); experiment: Field trial: grain yield and productive tillers of spring barley after foliar spray; type: in vivo; settings: 5 uMol
Method: Spring barley (variety Francin) was treated in 2019 at the locality in Olomouc, sprayed with substances—marked BAP (benzylaminopurine), meta-topolin mesylate and BAP mesylate. The seed was 3.5 million germinating seeds, the experiment was established in 5 randomized replicates for each variant, the control was an untreated variant. The experiment was performed according to the GEP (Good Experimental Practice) methodology, the size of individual plots was 10 m^2. The application of the substances was carried out at a rate of 300 l/ha, in the growth phase BBCH 31-33 (beginning of peeling).

[8] = application BBCH 31-33, untreated control = 100

C/C(=C/CNc1ncnc2[nH]cnc12)CO [cZ mesylate, (Z)-4-((9H-Purin Ylamino)-2-Methylbut-2-En-1-ol) Methanesulphonate]
IC50 [1]: > 167 µM | IC50 [2]: > 167 µM

Fc1ccc(CNc2ncnc3nc[nH]c23)c(F)c1 [2MBAP mesylate]
activity (%) [10^−5 mol · l^−1 BAP = 100%] [3]: 121% | concentration with highest activity [3]: 10^−6 mol · l^−1 | activity (%) [10^−4 mol · l^−1 BAP = 100%] [4]: 157% | concentration with highest activity [4]: 10^−4 mol · l^−1

COc1ccccc1CNc1ncnc2nc[nH]c12.CS(=O)(=O)O [2MeOBAP mesylate, 6-(2-methoxybenzylamino)purine mesylate]
IC50 ([1]; mesylate): > 167 µM | activity (%) [10^−5 mol · l^−1 BAP = 100%] [3]: 82% | IC50 ([5]; mesylate): 117 µM | IC50 ([2]; mesylate): 98.2 µM | activity (%) [10^−4 mol · l^−1 BAP = 100%] [4]: 271%

COc1ccccc1CNc1ncnc2nc[nH]c12 [2MeOBAP, 6-(2-methoxybenzylamino)purine]
IC50 ([6]; Homo sapiens, HL-60, 72 h): > 167 µM | IC50 ([1]; Homo sapiens, MCF7, 72 h): 153 µM | activity (%) [10^−5 mol · l^−1 BAP = 100%] [3]: 79% | IC50 ([5]; Homo sapiens, K562, 72 h): 116 µM | IC50 (HOS (human osteosarcoma); Homo sapiens, 72 h): > 167 µM | IC50 ([2]; 72 h): 63.4 µM

CS(=O)(=O)O.Oc1cccc(CNc2ncnc3[nH]cnc23)c1 [m-topolin mesylate]
Length of plants ([7]; application BBCH 31-33): 83.1 cm | Medium tillers (number) ([7]; application BBCH 31-33): 1.25 | Number of spikes per square meter ([7]; application BBCH 31-33): 721.6 | SUM of tillers ([7]; application BBCH 31-33): 5.5 | Strong tillers (number) ([7]; application BBCH 31-33): 2.45 | Weak tillers (number) ([7]; application BBCH 31-33): 1.8 | Grain yield (t/ha) at 14% humidity ([7]; application BBCH 31-33, spring barley): 8.01 t/ha | Grain yield, % compared to control [7, 8]: 108.03% | Length of plants, % compared to control [7, 8]: 100.36% | Medium tillers, % compared to control [7, 8]: 59.52% | Number of spikes per square meter, % compared to control [7, 8]: 106.62% | SUM of tillers, % compared to control [7, 8]: 95.65% | Strong tillers, % compared to control [7, 8]: 136.11% | Weak tillers, % compared to control [7, 8]: 97.3%

CS(=O)(=O)O.Fc1ccccc1CNc1ncnc2nc[nH]c12 [2FBAP mesylate, 6-(2-fluorobenzylamino)purine mesylate]
IC50 ([6]; Homo sapiens, HL-60, 72 h): 126 µM | activity (%) [10^−5 mol · l^−1 BAP = 100%] [3]: 110% | IC50 ([5]; mesylate): 70.7 µM | IC50 ([2]; mesylate): 99.5 µM | activity (%) [10^−4 mol · l^−1 BAP = 100%] [4]: 175%

CS(=O)(=O)O.Fc1cc(F)cc(CNc2ncnc3nc[nH]c23)c1 [3.5diFBAP mesylate]
activity (%) [10^−4 mol · l^−1 BAP = 100%] [4]: 168% | concentration with highest activity [4]: 10^−5 mol · l^−1

CS(=O)(=O)O.Clc1ccccc1CNc1ncnc2nc[nH]c12 [2ClBAP mesylate, 6-(2-chlorobenzylamino)purine mesylate]
IC50 ([1]; mesylate): 128 µM | activity (%) [10^−5 mol · l^−1 BAP = 100%] [3]: 97% | IC50 ([5]; mesylate): 90.4 µM | IC50 (HOS (human osteosarcoma); mesylate): 100 µM | IC50 ([2]; mesylate): 112 µM | activity (%) [10^−4 mol · l^−1 BAP = 100%] [4]: 122%

CC(CO)CCNc1ncnc2nc[nH]c12 (racemic) [Dihydrozeatin (DHZ), dihydrozeatin]
IC50 ([6]; Homo sapiens, HL-60, 72 h): > 167 µM | IC50 ([1]; Homo sapiens, MCF7, 72 h): > 167 µM | activity (%) [10^−5 mol · l^−1 BAP = 100%] [3]: 78% | IC50 ([5]; Homo sapiens, K562, 72 h): > 167 µM | IC50 (HOS (human osteosarcoma); Homo sapiens, 72 h): > 167 µM | IC50 ([2]; 72 h): > 167 µM | activity (%) [10^−4 mol · l^−1 BAP = 100%] [4]: 81%

C/C(=C/CNc1ncnc2nc[nH]c12)CO [Cis-zeatin (cZ), Cis-zeatin]
IC50 [6]: > 167 µM | IC50 [1]: > 167 µM | IC50 (HOS (human osteosarcoma)): > 167 µM | IC50 [2]: > 167 µM

COc1ccc(CNc2ncnc3nc[nH]c23)cc1 [4MeOBAP mesylate, 6-(4-methoxybenzylamino)purine mesylate]
IC50 ([5]; mesylate): 118 µM

CS(=O)(=O)O.Fc1cccc(CNc2ncnc3nc[nH]c23)c1 [3FBAP mesylate, 6-(3-fluorobenzylamino)purine mesylate]
IC50 ([1]; mesylate): > 167 µM | activity (%) [10^−5 mol · l^−1 BAP = 100%] [3]: 137% | IC50 ([5]; mesylate): 136 µM | activity (%) [10^−4 mol · l^−1 BAP = 100%] [4]: 210%

Fc1ccc(CNc2ncnc3nc[nH]c23)c(F)c1 [6-(2.4-difluorobenzylamino)purine (2.4diFBAP)]
activity (%) [10^−4 mol · l^−1 BAP = 100%] [4]: 139% | concentration with highest activity [4]: 10^−5 mol · l^−1

CS(=O)(=O)O.Fc1ccc(CNc2ncnc3nc[nH]c23)cc1 [4FBAP mesylate, 6-(4-fluorobenzylamino)purine mesylate]
activity (%) [10^−5 mol · l^−1 BAP = 100%] [3]: 126% | activity (%) [10^−4 mol · l^−1 BAP = 100%] [4]: 98%

COc1cccc(CNc2ncnc3nc[nH]c23)c1O [2OH3MeOBAP, 6-(2-hydroxy-3-methoxybenzylamino)purine]
IC50 ([6]; Homo sapiens, HL-60, 72 h): 64.3 µM | IC50 ([1]; Homo sapiens, MCF7, 72 h): 26.6 µM | IC50 ([5]; Homo sapiens, K562, 72 h): > 167 µM | IC50 ([2]; 72 h): 41.6 µM

Clc1ccc(CNc2ncnc3nc[nH]c23)cc1 [4ClBAP]
IC50 [6]: > 167 µM | IC50 [1]: > 167 µM | IC50 [5]: > 167 µM | IC50 (HOS (human osteosarcoma)): > 167 µM | IC50 [2]: > 167 µM

Fc1cc(F)cc(CNc2ncnc3nc[nH]c23)c1 [6-(3.5-difluorobenzylamino)purine]
activity (%) [10^−4 mol · l^−1 BAP = 100%] [4]: 156% | concentration with highest activity [4]: 10^−5 mol · l^−1

CS(=O)(=O)O.Clc1cccc(CNc2ncnc3nc[nH]c23)c1 [3ClBAP mesylate, 6-(3-chlorobenzylamino)purine mesylate]
activity (%) [10^−5 mol · l^−1 BAP = 100%] [3]: 101% | activity (%) [10^−4 mol · l^−1 BAP = 100%] [4]: 82%

CS(=O)(=O)O.Fc1ccc(CNc2ncnc3nc[nH]c23)c(F)c1 [2.4diFBAP mesylate]
activity (%) [10^−4 mol · l^−1 BAP = 100%] [4]: 141% | concentration with highest activity [4]: 10^−5 mol · l^−1

CC(CO)CCNc1ncnc2[nH]cnc12.CS(=O)(=O)O (racemic) [DHZ mesylate, (RS)-4-((9H-Purin Ylamino)-2-Methylbutan-1-ol) Methanesulphonate]
IC50 [1]: > 167 µM | activity (%) [10^−5 mol · l^−1 BAP = 100%] [3]: 78% | concentration with highest activity [3]: 10^−6 mol · l^−1 | IC50 [5]: > 167 µM | IC50 [2]: > 167 µM | activity (%) [10^−4 mol · l^−1 BAP = 100%] [4]: 82% | concentration with highest activity [4]: 10^−4 mol · l^−1

COc1cccc(CNc2ncnc3nc[nH]c23)c1O [2OH3MeOBAP mesylate, 6-(2-hydroxy-3-methoxybenzylamino)purine mesylate]
IC50 ([6]; mesylate): 67.8 µM | IC50 ([1]; mesylate): 32.1 µM | IC50 ([2]; mesylate): 51 µM
